This passage reports EC50 results from article PMC12163684, “Gunacins: Novel Benzo[g]chromene Derivatives from the Fungus Exobasidium sp. and Their Potent Anti-Leishmania and Trypanosoma Activities” (ACS Omega, 2025).

The subject of the assay is RTL-W1 cell line. Briefly: Cell viability assay with fluorescent indicators AB, CFDA-AM and NR. Format: cell-based, rainbow trout (Oncorhynchus mykiss). To be noted: Oncorhynchus mykiss, 24 h exposure, n.d. = activity not detected at highest tested concentration 150 μM. The protocol: Cell viability assay was determined on cell line RTL-W1 (obtained from Eawag, Switzerland; liver tissue) of rainbow trout (Oncorhynchus mykiss) according to the modified procedure of Dayeh (2005). A combination of three fluorescent indicators, alamarBlue (AB), 5-carboxyfluorescein diacetate acetoxymethyl ester (CFDA-AM), and NR was used to assess different mechanisms of toxic action, evaluate the general cellular response and increase the sensitivity of the cytotoxicity tests. […] After 24 h of incubation in microculturing plates, the cells were exposed to concentration series of isolated compounds in 0.5% DMSO for another 24 h. After the exposition, the solutions were removed from individual wells followed by the washing step and the addition of 100 μL of a dye solution containing 0.625% AB and 0.4 μM CFDA-AM in […]. The cells were incubated at room temperature for 30 min, and the fluorescence was measured at excitation/emission wavelengths of 535/590 nm for the AB assay and 485/535 nm for the CFDA-AM assay. Afterward, the dye solution was removed, the cells were rinsed, and 100 μL of the NR solution was added (0.03 mg/mL in […]). After 60 min of incubation, the cells were rinsed twice, and NR was extracted from the cells using 150 μL of a solution consisting of 1% (v/v) glacial acetic acid in 50% (v/v) ethanol. The content of each well was repeatedly homogenized using a pipet, and the fluorescence was measured at excitation/emission wavelengths of 535/630 nm.

Setting [1] is: Alamar Blue, cellular metabolic activity, read-out: EC50 ± SEM RTL-W1 (AB).
[2] abbreviates: CFDA-AM, cell membrane integrity, read-out: EC50 ± SEM RTL-W1 (CFDA).
Where [3] appears, read: Neutral Red, lysosomal membrane integrity, read-out: EC50 ± SEM RTL-W1 (NR).

Read-outs that look alike come from different tables or passages of the source.

On to `COc1cc(O)c2c(c1)C(=O)C1=C(C2=O)[C@@H](OC(C)=O)[C@@H](O)[C@@H](C)O1` [Compound 1, (2R,3S,4R)-3,6-dihydroxy-8-methoxy-2-methyl-5,10-dioxo-3,4,5,10-tetrahydro-2H-benzo[g]chromen-4-yl acetate], for which the 50% effective concentration (EC50) – broadly, the concentration giving half of the maximal effect – under setting [1] worked out at 0.5 µM; the 50% effective concentration (EC50) under setting [2] amounted to 0.8 ± 0.1 µM; the 50% effective concentration (EC50) under setting [3] stood at 0.3 µM.
For `COc1cc(O)c2c(c1)C(=O)C1=C(C2=O)[C@@H](O)[C@@H](OC(C)=O)[C@@H](C)O1` [Compound 5, (2R,3R,4R)-4,6-dihydroxy-8-methoxy-2-methyl-5,10-dioxo-3,4,5,10-tetrahydro-2H-benzo[g]chromen-3-yl acetate] the same measures were 2.5 ± 0.3 µM, 2.1 ± 0.1 µM and 0.9 ± 0.1 µM.
